In US10722503B2, “Glitazones for topical application” (priority 2017, dated 2020):

Columns and labels:
keratosis pilaris (KP) = assay: Topical treatment of keratosis pilaris (KP) in patients, severity grading; assay type: in vivo, human; conditions: formulation similar to that of Example 1, glitazone substituted for pioglitazone
Description: Prior to treatment, the severity of the KP condition was graded. […]

SEB-1 sebocytes = assay: In vitro treatment of cultured sebocytes, intracellular lipids (ADIPORED fluorescence normalized to DAPI cell count); assay type: cell-based; conditions: formulation similar to that of Example 1, glitazone substituted for pioglitazone
Protocol: Cultured SEB-1 sebocytes (Xia et al., Dermato-Endocrinology, 1(2):92-95 (2009)) were treated with the pioglitazone formulation of Example 1. Sebocytes were cultured in 96 wells plates (2500 cells/well), until confluency. Plates were washed twice with warm sterile PBS and then incubated (at 37° C. and 5% CO2) for another 48 hours after treating them with the pioglitazone formulation in treatment media. After 48 hours, media was carefully removed from the plates and, after washing with PBS, ADIPORED™ reagent (Lonza Walkersville, Inc., Walkersville, Md.) was carefully added into each well. The plates were read for intracellular lipids using a spectrofluorometer. The lipid fluorescence was normalized against the total cell count that was performed using DAPI staining. Following treatment, the lipid content in the treated sebocytes was determined to have increased by 27% compared to control untreated sebocytes. The increased lipid content was confirmed by determining the expression of SREBP-1, a lipid synthesis transcription factor.

Structure (SMILES)	results of Examples 2 and 3 (KP treatment) repeated with another glitazone formulation (keratosis pilaris (KP))	results of Example 4 (sebocyte lipid content) repeated with another glitazone formulation (SEB-1 sebocytes)
COc1ccc(Oc2cc(N(C)CCOc3ccc(CC4SC(=O)NC4=O)cc3)ncn2)cc1 (stereo not drawn) [lobeglitazone]	Results similar to those obtained in Examples 2 to 4 using pioglitazone	Results similar to those obtained in Examples 2 to 4 using pioglitazone
O=C1NC(=O)C(Cc2ccc3cc(OCc4ccccc4F)ccc3c2)S1 (stereo not drawn) [netoglitazone]	Results similar to those obtained in Examples 2 to 4 using pioglitazone	Results similar to those obtained in Examples 2 to 4 using pioglitazone
COc1ccc2nc(COc3ccc(CC4SC(=O)NC4=O)cc3)n(C)c2c1 (stereo not drawn) [rivoglitazone]	Results similar to those obtained in Examples 2 to 4 using pioglitazone	Results similar to those obtained in Examples 2 to 4 using pioglitazone
